“Also recorded” adds a separate entry of the source.
Legend:
DPPIV [1] = target: T1, DPPIV (Mus musculus, UniProt P28843); assay: Plasma DPPIV activity assay with mouse blood; type: biochemical; conditions: peptide 0.82 mM in mouse blood, 2 h at 37° C.; relative to saline control set to 100%
T1 construct: The plasma was transferred to a 96-well assay plate for the DPPIV assay; from tissue; host or cells: pooled heparinized whole blood of ICR mice; plasma isolated after incubation
Method: Mouse blood was obtained by cardiac puncture from ICR mice and collected in heparinized blood collection tubes. Blood from several mice was pooled and aliquoted into […]. The peptide was dissolved in acetate buffered saline, pH 5.5, to a concentration of 9 mM. Of this stock solution 30 μL were added to 300 μL of blood and mixed by resuspension (concentration in blood 0.82 mM). For the control, 30 μL of blank acetate buffered saline was added to 300 μL of blood. Each peptide group was prepared in triplicate, whereas the control was prepared in six replicates. The samples were incubated at 37° C. in closed microtubes for two hours. After incubation the plasma was isolated from the samples by centrifugation at 4000 rcf. The plasma was transferred to a 96-well assay plate for the DPPIV assay. The assay was started by adding 5 μL of the DPPIV substrate gly-pro-p-nitroanilide (16 mM in de-ionized water) to 95 μl of plasma (concentration in plasma 0.8 mM) and the increase in UV absorbance (405 nm) was monitored over a 20 min time period. The rate of the production of p-nitroaniline by enzymatic cleavage of gly-pro-p-nitroanilide was taken as the activity of DPPIV (Durinx C et al., (2001) “Reference values for plasma dipeptidyl-peptidase IV activity and their association with other laboratory parameters”. Clin Chem Lab Med. 39(2):155-9.)
The effect of the peptides on the activity of DPPIV was observed. Results are presented as normalized, averaged % activity relative to saline control (set to 100%). Anything less than 100% activity represents a reduction in DPPIV activity.
In one aspect of the invention, a reduction by of DPPIV activity by about, or in one embodiment, at least, 25% (i.e. to about 75%+/−5%) was deemed to be active. A person skilled in the art would appreciate that the desired level of activity may vary depending on the use of the peptides.

S. aureus 25923 [2] = assay: Non-antimicrobial activity, WST-1 colorimetric bacterial viability assay; type: cell-based; conditions: peptide 200 μM, 2 hours growth, compared with erythromycin 120 μg/ml
Method: Bacteria (S. aureus 25923) were seeded into wells containing peptide (200 μM), vehicle (Tris), or antibiotic (erythromycin; 120 μg/ml). The bacteria were allowed to grow for 2 hours. Thereafter, bacterial viability was determined utilizing a WST-1 colorimetric viability assay (catalogue number 1 644 807; Roche Diagnostics). DMEM and DMEM+WST-1 were included as background controls.

S. aureus 25923 [3] = assay: In vivo protection, mice infected IP with S. aureus, peptide after infection; conditions: peptide IP 4 hours after infection, 9-24 mg/kg depending on peptide, 24 hours post-infection, vs control
Method: Mice were infected with S. aureus 25923 via intraperitoneal (IP) injection. Four hours later, the peptide of SEQ ID NOs:1, 4, 5, 6, 45, and 47 were administered at 12 mg/kg and 24 mg/kg for SEQ. ID. NO. 1 (FIGS. 2A and 2B), 9.6 mg/kg for SEQ. ID. NO. 5 (FIG. 2C), 13 mg/kg for SEQ. ID. NO. 47 (FIG. 2D), 12 mg/kg for SEQ. ID. NO. 4 (FIG. 2E), 9 mg/kg for SEQ. ID. NO. 6 (FIG. 2F), and 13 mg/kg for SEQ. ID. NO. 45 (FIG. 2G), via IP injection. Twenty-four hours post-infection, surviving animals were sacrificed, and intraperitoneal lavage fluid was plated to determine residual bacterial counts (# colony forming units per ml (CFU/ml)) in the presence and absence of peptide treatment.
Dead animals were assigned the highest bacterial count of any animal in the study.

S. aureus 25923 [4] = assay: Prophylactic in vivo protection, peptide before IP S. aureus infection of mice; conditions: for protection (residual bacterial counts CFU/ml in intraperitoneal lavage fluid): mice, peptide IP 24 hours prior to infection, 12 mg/kg (SEQ 1), 11.5 mg/kg (SEQ 5), 24 hours post-infection; for mouse dead (peptide treatment): prophylactic peptide IP, control 2 mice dead
Method: Twenty-four hours prior to infection, peptide was administered at 12 mg/kg (SEQ. ID. NO. 1, FIG. 3A) and 11.5 mg/kg (SEQ. ID. No. 5, FIG. 3B), via IP injection. Mice were then infected with S. aureus 25923 via IP injection. Twenty-four hours post-infection, surviving animals were sacrificed and intraperitoneal lavage fluid was plated to determine residual bacterial counts (# colony forming units per ml (CFU/ml)) in the presence and absence of peptide treatment.
Dead animals were assigned the highest bacterial count of any animal in the study. The peptides of SEQ. ID.

[5] = system: methicillin-resistant Staphlococcus aureus (MRSA strain ATCC 33591, UC6685); assay: Enhancing the efficacy of antibiotic treatment, MRSA infection of CD-1 mice; type: in vivo; conditions: peptide 60 mg/kg IP 24 hours prior to infection, in combination with vancomycin s.c. 1 and 5 hours post-infection; relative to vehicle or antibiotic alone; 5 or 8 days
Method: Twenty-four hours prior to infection, peptide was administered at 60 mg/kg via IP injection to CD-1 mice (N=10 animals/group; FIG. 8A: male mice, FIG. 8B: female mice). Mice were then infected with methicillin-resistant Staphlococcus aureus (MRSA strain ATCC 33591 in FIG. 8A and UC6685 in FIG. 8B) via IP injection (1.5*10^7 in FIG. 8A and ˜4*10^5 in FIG. 8B). Vancomycin at the given dosage was administered twice subcutaneously 1 and 5 hours post-infection. Survival was monitored over 5 (FIG. 8A) or 8 (FIG. 8B) days.

DPPIV [6] = target: T1, DPPIV; assay: Comparative DPPIV dose response curves in whole ICR mouse blood; type: biochemical; conditions: 2 h at 37° C., different concentrations
Method: Dose response of SEQ. ID. NO. 5 of the present invention and SEQ. ID NO. 7 in PCT/CA02/01830, filed Dec. 2, 2002 (KSRIVPAIPVSLL). Peptides were incubated at different concentrations with whole ICR mouse blood for 2 h at 37° C. Blood incubated with acetate buffered saline (20 mM) was used as a control. Following incubation, plasma was isolated by centrifugation for 10 minutes at 4000 rcf. The substrate Gly-Pro-p-nitroanilide (0.8 mM) was added to the plasma and the enzymatic rate of DPPIV was determined by monitoring the increase in UV absorbance of the product p-nitroaniline. […] ID. NO.

[7] = system: LPS stimulated cytokine response; assay: Anti-inflammatory activity: ex vivo LPS stimulated cytokine response of PBMCs after in vivo peptide treatment; parameters: species or system mouse; conditions: 100 mg/kg intravenously, blood collected after 4 hours, PBMCs stimulated with LPS
Method: The effect of peptide treatment on the ex vivo LPS stimulated cytokine response was measured. In these studies, SEQ ID NO 5 was administered intravenously at 100 mg/kg and after 4 hours, blood was collected from each mouse. PBMCs were isolated and stimulated with LPS and the resulting cytokine levels were determined.

DPPIV [8] = target: T2, DPPIV (Homo sapiens, UniProt P27487); assay: Plasma DPPIV activity assay with human blood; type: biochemical; conditions: 2 hours at 37° C., dose response
T2 construct: from tissue; host or cells: heparinized whole blood of human volunteer donors; plasma isolated after incubation
Method: Human blood was obtained by qualified medical personnel from volunteer donors and collected in heparinized blood collection tubes. Blood was aliquoted into 300 μL aliquots. The peptides were dissolved in acetate buffered saline, pH 5.5. 30 μL of various concentrations were added to 300 μL of blood and mixed by resuspension (final concentration in blood as indicated in FIG. 6). For the control, 30 μL of blank acetate buffered saline was added to 300 μL of blood. Each concentration was prepared in triplicate, whereas the control was prepared in six replicates. The samples were incubated at 37° C. in closed microtubes for two hours. After incubation the plasma was isolated from the samples by centrifugation at 4000 rcf. The plasma was transferred to a 96-well assay plate for the DPPIV assay. The assay was started by adding 5 μL of the DPPIV substrate gly-pro-p-nitroanilide (16 mM in de-ionized water) to 95 μL of plasma (concentration in plasma 0.8 mM) and the increase in UV absorbance (405 nm) was monitored over a 20 min time period. The rate of the production of p-nitroaniline by enzymatic cleavage of gly-pro-p-nitroanilide was taken as the activity of DPPIV (Durinx C et al., (2001) “Reference values for plasma dipeptidyl-peptidase IV activity and their association with other laboratory parameters”. Clin Chem Lab Med. 39(2):155-9.)

T1 sequence (P28843 37-760 limits assumed): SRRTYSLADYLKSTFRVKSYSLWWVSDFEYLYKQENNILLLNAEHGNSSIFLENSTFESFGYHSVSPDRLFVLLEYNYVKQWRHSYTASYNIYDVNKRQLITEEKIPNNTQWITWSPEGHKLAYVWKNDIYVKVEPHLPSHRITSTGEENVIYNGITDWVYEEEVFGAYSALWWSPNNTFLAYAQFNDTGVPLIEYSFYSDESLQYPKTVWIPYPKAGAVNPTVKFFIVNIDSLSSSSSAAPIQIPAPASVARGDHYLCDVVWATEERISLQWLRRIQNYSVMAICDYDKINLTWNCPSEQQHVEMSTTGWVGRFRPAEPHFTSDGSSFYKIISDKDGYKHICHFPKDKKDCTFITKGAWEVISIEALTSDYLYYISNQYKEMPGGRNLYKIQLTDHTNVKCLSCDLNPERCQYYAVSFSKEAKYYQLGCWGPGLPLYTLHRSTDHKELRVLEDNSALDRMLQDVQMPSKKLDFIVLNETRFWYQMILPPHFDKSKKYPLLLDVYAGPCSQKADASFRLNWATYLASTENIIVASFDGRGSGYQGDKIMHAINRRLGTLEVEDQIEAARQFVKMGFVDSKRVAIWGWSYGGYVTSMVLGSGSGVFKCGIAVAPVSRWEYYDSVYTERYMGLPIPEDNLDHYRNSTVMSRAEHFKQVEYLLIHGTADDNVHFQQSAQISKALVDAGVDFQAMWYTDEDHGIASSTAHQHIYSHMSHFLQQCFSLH
T2 sequence (P27487 39-766 limits assumed): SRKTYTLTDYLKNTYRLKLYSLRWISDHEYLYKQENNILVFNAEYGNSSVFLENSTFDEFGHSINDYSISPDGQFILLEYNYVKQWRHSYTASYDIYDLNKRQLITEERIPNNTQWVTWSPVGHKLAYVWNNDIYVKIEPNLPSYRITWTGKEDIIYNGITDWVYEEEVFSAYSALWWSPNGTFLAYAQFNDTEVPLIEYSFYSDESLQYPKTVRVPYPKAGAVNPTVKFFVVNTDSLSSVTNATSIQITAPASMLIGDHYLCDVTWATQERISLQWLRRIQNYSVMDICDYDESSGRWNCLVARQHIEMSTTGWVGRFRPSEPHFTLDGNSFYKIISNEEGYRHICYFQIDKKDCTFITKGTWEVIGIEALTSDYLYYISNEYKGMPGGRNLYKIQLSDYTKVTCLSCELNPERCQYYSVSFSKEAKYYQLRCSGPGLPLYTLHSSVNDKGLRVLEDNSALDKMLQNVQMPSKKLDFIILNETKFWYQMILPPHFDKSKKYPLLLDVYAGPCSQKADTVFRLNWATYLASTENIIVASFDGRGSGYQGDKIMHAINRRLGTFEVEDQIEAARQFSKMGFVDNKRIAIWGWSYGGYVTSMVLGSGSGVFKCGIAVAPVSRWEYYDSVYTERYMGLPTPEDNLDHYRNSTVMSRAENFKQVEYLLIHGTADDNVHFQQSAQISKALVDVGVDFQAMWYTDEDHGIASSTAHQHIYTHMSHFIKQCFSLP

Substance | % DPPIV Activity (Saline) (DPPIV [1]) [%] | antimicrobial activity (bacterial viability) (S. aureus 25923 [2]) | protection (residual bacterial counts CFU/ml in intraperitoneal lavage fluid) (S. aureus 25923 [3]) | protection (residual bacterial counts CFU/ml in intraperitoneal lavage fluid) (S. aureus 25923 [4]) | mouse dead (peptide treatment) (S. aureus 25923 [4]) | survival [5] | DPPIV dose response (DPPIV [6]) | inflammatory response to LPS stimulation (cytokine levels) [7] | plasma DPPIV activity in human blood (DPPIV [8])
1 (KSRIVP; IMMUNOLOGICAL PEPTIDE) [compound 1] | 76 | lacked antimicrobial activity | clearly demonstrated protection | clearly demonstrated protection | 0 | – | – | – | –
5 (RIVPA; IMMUNOLOGICAL PEPTIDE) [compound 5] | 66 | lack of activity; also recorded: lacked antimicrobial activity | clearly demonstrated protection | clearly demonstrated protection | 0 | – | – | – | –
KSRIVP (IMMUNOLOGICAL PEPTIDE) [SEQ ID NO 1] | – | – | – | – | – | enhanced survival | – | – | –
KSRIVPAIPVSLL [ID NO; 7 in PCT/CA02/01830, filed Dec; 2, 2002, reference compound] | – | – | – | – | – | – | A similar dose response was absent | – | –
RIVPA [SEQ ID NO 5] | – | – | – | – | – | enhanced survival | larger decrease in DPPIV activity with increasing peptide concentration | decreased inflammatory response to LPS stimulation | comparable to that determined in mouse blood

From patent US8791061B2, “Peptides for treating and preventing immune-related disorders, including treating and preventing infection by modulating innate immunity” (Soligenix, Inc., priority 2005, dated 2014)
